In PMC7036995 (Molecules, 2020):
Where two headings read alike, the source gives them in different places. Blank lines part the entries; values can stand above or below the compound they belong to.

Columns and labels:
[1] = target: T1, bovine serum albumin (BSA) (Bos taurus, UniProt P02769); details: λEX = 295 nm, T = 310.15 K, pH 7.4, BSA 5 μM
Procedure: Conditions: T = 310.15 K, pH = 7.4.
Conditions: λEX = 295 nm, T = 310.15 K, pH = 7.4. The HSA and BSA concentrations were 5 μM; FA concentrations were 0.52, 1.04, 2.08, 4.16, 8.33, 16.66, 33.33, 66.66 and 133.33 μM. R concentrations were 15.6, 31.25, 62.5, 125, 250, 500, 1000, 2000 and 4000 μM.
Fluorescence spectra were measured in triplicates on a FluoroMax 4 spectrofluorimeter (Horiba Jobin Yvon Scientific, Irvine, CA, USA), equipped with a 1.0 cm path length quartz cell. The slit widths for the excitation and emission were 3.0 nm for all measurements. The temperatures used for the measurements were 298.15 K, 303.15 K and 310.15 K, respectively. Samples were incubated for 2 min. Buffer background was subtracted from the raw spectra. Fluorescence intensities were corrected for the absorption of excitation light and re-absorption of emitted light to decrease the inner filter using the following relationship [13]:(2) Fcor=Fobs×10^(Aex+Aem)/2 where Fcor and Fobs are the corrected and observed fluorescence intensities, respectively. Aex and Aem are the absorbance values of the experimental solution (including all ligands) at excitation and emission wavelengths, respectively. Corrected spectra were smoothed to minimize the influence of the signal noise.

[2] = target: T2, human serum albumin (HSA) (Homo sapiens, UniProt P02768); assay: Fluorescence spectroscopy of HSA (Trp fluorescence quenching/enhancement; KD by DynaFit); format: binding; details: for change of HSA fluorescence with increasing ligand concentration: λEX = 295 nm, T = 310.15 K, pH 7.4, HSA 5 μM; for Kd: HSA 5 μM, pH 7.4, read-out: KD (Fluor.)
T2 construct: purchased Sigma-Aldrich; host or cells: rice
Procedure: To find out if there was any interaction when both studied compounds were present, we performed an analysis of ternary mixtures, [(HSA + Q) + R] and [(HSA + R) + Q], when the first-added compound was pre-incubated with HSA at a constant concentration and the second compound was added at variable concentrations. The concentrations of the first-added drug in the ternary system was 5 μM for Q and 400 μM for R. These concentrations were chosen as an approximate half-saturation point for both compounds.
Therefore, as in previously published research [14], we used the DynaFit software script. Data input consisted of [Ltotal] (total ligand concentrations) for the variable reactant concentrations, [Ptotal] (total protein concentration) for the fixed reactant concentration, and F/F0 for the experimentally observed value. The software calculates [Lfree] (free ligand concentration), creates a semilogarithmic plot of F/F0 vs. [Lfree] and determines the KD value by finding the halfway point in the sigmoid-shaped curve.
Fluorescence spectra were measured in triplicates on a FluoroMax 4 spectrofluorimeter (Horiba Jobin Yvon Scientific, Irvine, CA, USA), equipped with a 1.0 cm path length quartz cell. The slit widths for the excitation and emission were 3.0 nm for all measurements. […] Samples were incubated for 2 min. Buffer background was subtracted from the raw spectra. Fluorescence intensities were corrected for the absorption of excitation light and re-absorption of emitted light to decrease the inner filter using the following relationship [13]:(2) Fcor=Fobs×10^(Aex+Aem)/2 where Fcor and Fobs are the corrected and observed fluorescence intensities, respectively. Aex and Aem are the absorbance values of the experimental solution (including all ligands) at excitation and emission wavelengths, respectively. Corrected spectra were smoothed to minimize the influence of the signal noise.
Fluorescence spectral data after correction and smoothing were used to calculate the dissociation constant (KD) for all studied systems. For evaluation and logarithmic plot fitting we used DynaFit software (version 4.0, BioKin Ltd., Watertown, MA, USA, http://www.biokin.com/dynafit/index.html) using a custom-written script.

[3] = test system: HSA; details: cited from earlier work; for Kd: Sudlow's Site 1
[4] = test system: human serum proteins; details: concentration range 0.01 to 10 mg/L, equilibrium dialysis; cited from earlier work
[5] = target: T2, human serum albumin (HSA); assay: Microscale thermophoresis (MST) with RED-NHS labeled HSA; format: binding
Procedure: We performed a full set of MST measurements for mixtures where R was the compound with the concentration gradient.
Figure 9 The MST binding curves for all studied systems. Conditions: T = 297.05 K, pH = 7.4. The concentration of HSA was 20 nM, the starting concentrations of R were 7.15 mM, c(Q) in the ternary system was 20 nM.
For [(HSA + Q) + R] system it was possible to additionally derive KD value from the increase in fluorescence in the initial capillary scans. The mechanism of this feature is the same as in the regular fluorescence experiment (Figure 5).
The MST measurements were performed on Monolith NT.115 (NanoTemper Technologies, GmbH, Germany) instrument using Premium capillaries. HSA sample was labeled using RED-NHS protein labeling kit. Assay buffer was PBS with added 0.1% Pluronic F-127 as the surface agent. Ligand samples were dissolved in DMSO and then diluted with the assay buffer to the final concentration. Serial dilutions of the ligand were prepared, the protein was then added and the mixtures were incubated for 10 min at laboratory temperature. Each experiment was performed in three parallel measurements. The results were evaluated in the instrument software (MO.Control v1.6, NanoTemper Technologies, GmbH, Germany).

[6] = target: T1, bovine serum albumin (BSA); details: Site 1 of BSA; read-out: dissociation constant KD; cited from earlier work

T2 sequence (P02768 25-609): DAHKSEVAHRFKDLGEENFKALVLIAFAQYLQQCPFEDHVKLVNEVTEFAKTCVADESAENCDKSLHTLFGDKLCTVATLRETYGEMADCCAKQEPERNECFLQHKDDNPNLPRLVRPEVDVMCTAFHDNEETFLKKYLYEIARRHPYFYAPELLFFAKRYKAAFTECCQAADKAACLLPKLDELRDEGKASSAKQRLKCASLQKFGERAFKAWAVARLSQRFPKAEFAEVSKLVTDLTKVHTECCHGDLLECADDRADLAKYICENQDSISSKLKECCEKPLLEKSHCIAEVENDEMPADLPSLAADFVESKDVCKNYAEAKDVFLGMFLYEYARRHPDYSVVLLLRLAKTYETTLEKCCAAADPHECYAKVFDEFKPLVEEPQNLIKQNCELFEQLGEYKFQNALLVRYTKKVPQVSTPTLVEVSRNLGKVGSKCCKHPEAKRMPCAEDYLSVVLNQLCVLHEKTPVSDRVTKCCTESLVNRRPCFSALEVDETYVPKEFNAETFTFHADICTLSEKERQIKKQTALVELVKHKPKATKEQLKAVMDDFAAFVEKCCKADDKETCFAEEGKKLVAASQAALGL
T1 sequence (P02769 25-607): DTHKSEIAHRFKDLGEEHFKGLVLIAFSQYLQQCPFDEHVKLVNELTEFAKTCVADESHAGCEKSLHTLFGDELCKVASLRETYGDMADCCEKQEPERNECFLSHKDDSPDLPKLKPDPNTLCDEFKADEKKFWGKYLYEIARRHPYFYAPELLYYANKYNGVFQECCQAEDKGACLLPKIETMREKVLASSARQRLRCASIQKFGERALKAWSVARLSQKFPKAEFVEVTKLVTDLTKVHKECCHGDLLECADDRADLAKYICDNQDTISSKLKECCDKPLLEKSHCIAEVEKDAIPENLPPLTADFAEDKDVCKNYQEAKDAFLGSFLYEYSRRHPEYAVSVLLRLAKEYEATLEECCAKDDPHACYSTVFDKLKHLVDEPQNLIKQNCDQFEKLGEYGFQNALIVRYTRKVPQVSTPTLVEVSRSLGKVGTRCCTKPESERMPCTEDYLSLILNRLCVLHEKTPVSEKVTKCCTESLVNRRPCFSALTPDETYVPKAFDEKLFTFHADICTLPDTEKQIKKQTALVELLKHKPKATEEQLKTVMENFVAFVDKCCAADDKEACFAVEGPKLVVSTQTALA

change of BSA fluorescence with increasing ligand concentration [1]: decrease
change of HSA fluorescence with increasing ligand concentration [2]: remains more or less constant
Structure (SMILES): CC(=O)O[C@H]1C[C@@]2(C)[C@@H](C[C@@H](O)[C@H]3[C@@]4(C)CC[C@@H](O)[C@@H](C)[C@@H]4CC[C@@]32C)/C1=C(\CCC=C(C)C)C(=O)O [fusidic acid]

Kd ([2]; binary system HSA + ligand): 2.28 ± 0.61 µM
Kd ([2]; ternary system [(HSA + R) + Q]: HSA pre-incubated with 400 μM R, Q varied): 34.7 ± 15.1 µM
Structure (SMILES): O=c1c(O)c(-c2ccc(O)c(O)c2)oc2cc(O)cc(O)c12 [quercetin]
Kd ([3]; ref 13): 6.1 µM
Kd ([3]; ref 14): 6.48 µM
bound to HSA [3]: 99%

Kd ([5]; binary system HSA + R, T = 297.05 K, pH 7.4, HSA 20 nM, read-out: KD (MST)): 775 ± 75.3 µM
Kd ([5]; ternary system [(HSA + Q) + R], c(Q) 20 nM, HSA 20 nM, T = 297.05 K, pH 7.4, read-out: KD (MST)): 112 ± 24.6 µM
Kd ([5]; ternary system [(HSA + Q) + R], from increase in fluorescence in the initial capillary scans, c(Q) 20 nM, HSA 20 nM, read-out: KD (MST Fluorescence)): 168 ± 29.8 µM
KD for binding of R compared with KD for Q ([2]; HSA): more than hundredfold larger
Kd ([2]; binary system HSA + ligand): 1220 ± 677 µM
Kd ([2]; ternary system [(HSA + Q) + R]: HSA pre-incubated with 5 μM Q, R varied): 593 ± 90.6 µM
change of HSA fluorescence with increasing ligand concentration [2]: increases
Structure (SMILES): CCOC(=O)[C@H](CCc1ccccc1)N[C@@H](C)C(=O)N1[C@H](C(=O)O)C[C@@H]2CCC[C@@H]21 [ramipril]
bound to human serum proteins [4]: 73%
Kd [6]: 28.5 µM

Structure (SMILES): C[C@H](N[C@@H](CCc1ccccc1)C(=O)O)C(=O)N1[C@H](C(=O)O)C[C@@H]2CCC[C@@H]21 [ramiprilat]
bound to human serum proteins [4]: 56%
